Laboratory results: ChEMBL document CHEMBL1146647, “First total synthesis of structurally unique flavonoids and their strong anti-inflammatory effect” (2004)

Tested on: Mus musculus
Experiment: Percentage increase of mice ear thickness at 10 ug/kg
Assay type: functional

Structure (SMILES)	Increase [%]
O=c1cc(-c2ccc(O)cc2)oc2cc3c(c(O)c12)[C@@H]1O[C@H](CO)[C@@H](O)[C@H](O)[C@@H]1O3	30
O=c1cc(-c2ccccc2)oc2cc3c(c(O)c12)[C@@H]1O[C@H](CO)[C@@H](O)[C@H](O)[C@@H]1O3	59
